Read-outs that look alike come from different tables or passages of the source.
Legend:
Assay type in all cases: biochemical
Itk = biological target: T1, Itk (Homo sapiens, UniProt Q08881); test: Kinase inhibition assay (33P transfer), Itk; details: for IC50: read-out: Itk-1
T1 construct: Kinases are expressed as either kinase domains or full length constructs; made in house
T1 sequence (Q08881 1-620): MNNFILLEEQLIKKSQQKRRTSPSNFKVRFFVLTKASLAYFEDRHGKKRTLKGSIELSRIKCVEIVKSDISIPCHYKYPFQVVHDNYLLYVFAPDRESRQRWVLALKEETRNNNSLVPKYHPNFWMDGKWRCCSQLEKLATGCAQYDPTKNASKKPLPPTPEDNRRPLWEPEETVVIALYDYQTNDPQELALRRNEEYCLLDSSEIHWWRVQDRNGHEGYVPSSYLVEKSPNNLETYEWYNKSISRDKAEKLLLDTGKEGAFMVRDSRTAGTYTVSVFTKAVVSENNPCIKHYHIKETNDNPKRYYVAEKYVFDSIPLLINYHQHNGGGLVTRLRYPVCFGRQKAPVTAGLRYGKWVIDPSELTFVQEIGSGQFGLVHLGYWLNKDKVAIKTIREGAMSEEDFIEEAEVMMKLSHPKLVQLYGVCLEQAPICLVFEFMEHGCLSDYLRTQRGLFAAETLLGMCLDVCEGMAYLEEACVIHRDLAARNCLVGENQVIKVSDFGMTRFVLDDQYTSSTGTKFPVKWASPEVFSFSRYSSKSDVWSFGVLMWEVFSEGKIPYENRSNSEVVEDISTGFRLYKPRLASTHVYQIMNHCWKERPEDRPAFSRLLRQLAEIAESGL
In short: (§1)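 Using immobilised substrate copolymers (poly(Glu,Tyr) 4:1; poly(Arg,Ser) 3:1) and [33P]ATP, purified fusion kinases were allowed to react; plates were then rinsed in 0.5% phosphoric acid and counted in a scintillation detector. Half-maximal inhibition of label transfer defines IC50.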

EGFR = biological target: T2, EGFR (Homo sapiens, UniProt P00533); test: Kinase inhibition assay (33P transfer), EGFR; details: Table 2, kinase inhibition class; for IC50: read-out: EGFR-1
T2 construct: Kinases are expressed as either kinase domains or full length constructs; made in house
In short: as §1

AKT = biological target: T3, AKT (Homo sapiens, UniProt Q9Y243); test: Kinase inhibition assay (33P transfer), AKT; details: Table 2, kinase inhibition class; for IC50: read-out: AKT3-1
T3 construct: Kinases are expressed as either kinase domains or full length constructs; made in house
In short: (§2)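 Kinase domain or full-length constructs, GST- or polyHis-tagged, expressed in E. coli or baculovirus-High Five cells, sometimes with regulatory polypeptides. Activity measured as 33PO4 transfer from ATP to plate-bound poly(Glu,Tyr) 4:1 or poly(Arg,Ser) 3:1; after incubation, plates washed with 0.5% phosphoric acid and counted by liquid scintillation.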

c-Met = biological target: T4, c-Met (Homo sapiens, UniProt P08581); test: Kinase inhibition assay (33P transfer), c-Met; details: Table 2, kinase inhibition class; for IC50: read-out: Met-1
T4 construct: Kinases are expressed as either kinase domains or full length constructs; made in house
In short: as §1

Zap-70 = biological target: T5, Zap-70 (Homo sapiens, UniProt P43403); test: Kinase inhibition assay (33P transfer), Zap-70; details: for IC50: read-out: Zap-1
T5 construct: Kinases are expressed as either kinase domains or full length constructs; made in house
T5 sequence (P43403 1-619): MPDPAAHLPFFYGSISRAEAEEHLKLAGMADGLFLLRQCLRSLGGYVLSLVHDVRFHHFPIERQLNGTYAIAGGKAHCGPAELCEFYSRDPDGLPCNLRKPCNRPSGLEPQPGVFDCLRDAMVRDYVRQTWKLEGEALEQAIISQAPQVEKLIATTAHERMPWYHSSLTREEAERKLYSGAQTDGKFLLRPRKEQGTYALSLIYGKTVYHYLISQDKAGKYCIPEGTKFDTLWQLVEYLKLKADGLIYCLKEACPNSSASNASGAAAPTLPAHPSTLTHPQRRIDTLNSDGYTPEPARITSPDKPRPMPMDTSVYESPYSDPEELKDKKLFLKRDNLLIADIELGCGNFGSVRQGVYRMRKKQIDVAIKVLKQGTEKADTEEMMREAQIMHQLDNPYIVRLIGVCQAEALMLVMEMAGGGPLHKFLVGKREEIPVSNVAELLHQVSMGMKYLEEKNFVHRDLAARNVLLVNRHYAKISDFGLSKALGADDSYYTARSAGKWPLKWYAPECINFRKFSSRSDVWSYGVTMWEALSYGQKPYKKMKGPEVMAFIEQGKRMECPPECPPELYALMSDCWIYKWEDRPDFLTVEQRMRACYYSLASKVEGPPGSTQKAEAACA
In short: as §2

Kdr = biological target: T6, Kdr (Homo sapiens, UniProt P35968); test: Kinase inhibition assay (33P transfer), Kdr; details: for IC50: read-out: KDR-1
T6 construct: Kinases are expressed as either kinase domains or full length constructs; made in house
In short: as §2

Lck = biological target: T7, Lck (Homo sapiens, UniProt P06239); test: Kinase inhibition assay (33P transfer), Lck; details: for IC50: read-out: Lck-1
T7 construct: Kinases are expressed as either kinase domains or full length constructs; made in house
In short: as §2

T4 sequence (P08581 25-1390): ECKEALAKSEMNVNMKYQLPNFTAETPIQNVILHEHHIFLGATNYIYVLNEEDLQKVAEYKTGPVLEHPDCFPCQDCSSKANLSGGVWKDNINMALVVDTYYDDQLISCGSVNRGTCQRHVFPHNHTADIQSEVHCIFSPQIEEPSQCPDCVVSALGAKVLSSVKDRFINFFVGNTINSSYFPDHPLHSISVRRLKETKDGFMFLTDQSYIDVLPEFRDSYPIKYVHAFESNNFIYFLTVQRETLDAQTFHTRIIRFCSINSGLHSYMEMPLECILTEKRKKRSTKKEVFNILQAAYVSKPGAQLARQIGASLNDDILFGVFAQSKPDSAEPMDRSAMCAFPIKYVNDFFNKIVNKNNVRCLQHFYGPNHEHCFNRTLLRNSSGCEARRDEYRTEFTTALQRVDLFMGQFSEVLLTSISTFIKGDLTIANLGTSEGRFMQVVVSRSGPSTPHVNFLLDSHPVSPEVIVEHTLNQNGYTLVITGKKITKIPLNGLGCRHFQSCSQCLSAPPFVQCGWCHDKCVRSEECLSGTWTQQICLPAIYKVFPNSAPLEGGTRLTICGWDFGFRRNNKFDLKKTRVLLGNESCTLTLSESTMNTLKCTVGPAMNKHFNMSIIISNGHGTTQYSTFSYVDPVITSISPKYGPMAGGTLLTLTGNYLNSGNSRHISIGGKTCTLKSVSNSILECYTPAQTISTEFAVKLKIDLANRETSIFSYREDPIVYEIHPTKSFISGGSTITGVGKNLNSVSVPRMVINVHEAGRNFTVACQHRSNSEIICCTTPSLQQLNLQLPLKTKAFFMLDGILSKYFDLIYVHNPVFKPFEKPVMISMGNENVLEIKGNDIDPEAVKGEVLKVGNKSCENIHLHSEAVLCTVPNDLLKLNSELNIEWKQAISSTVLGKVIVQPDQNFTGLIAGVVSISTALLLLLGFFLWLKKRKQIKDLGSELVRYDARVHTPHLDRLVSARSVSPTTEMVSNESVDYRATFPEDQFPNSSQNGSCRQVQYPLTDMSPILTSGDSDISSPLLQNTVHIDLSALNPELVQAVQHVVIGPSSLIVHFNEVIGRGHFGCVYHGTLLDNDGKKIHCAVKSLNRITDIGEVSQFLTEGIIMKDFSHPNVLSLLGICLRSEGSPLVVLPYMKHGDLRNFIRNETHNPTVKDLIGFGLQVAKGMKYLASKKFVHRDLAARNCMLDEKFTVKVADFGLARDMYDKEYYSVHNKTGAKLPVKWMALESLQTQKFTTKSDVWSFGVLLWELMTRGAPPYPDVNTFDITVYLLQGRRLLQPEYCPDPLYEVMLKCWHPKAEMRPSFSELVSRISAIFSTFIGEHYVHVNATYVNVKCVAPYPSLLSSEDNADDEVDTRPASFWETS
T7 sequence (P06239 whole entry, species assumed, the tested form may be a part): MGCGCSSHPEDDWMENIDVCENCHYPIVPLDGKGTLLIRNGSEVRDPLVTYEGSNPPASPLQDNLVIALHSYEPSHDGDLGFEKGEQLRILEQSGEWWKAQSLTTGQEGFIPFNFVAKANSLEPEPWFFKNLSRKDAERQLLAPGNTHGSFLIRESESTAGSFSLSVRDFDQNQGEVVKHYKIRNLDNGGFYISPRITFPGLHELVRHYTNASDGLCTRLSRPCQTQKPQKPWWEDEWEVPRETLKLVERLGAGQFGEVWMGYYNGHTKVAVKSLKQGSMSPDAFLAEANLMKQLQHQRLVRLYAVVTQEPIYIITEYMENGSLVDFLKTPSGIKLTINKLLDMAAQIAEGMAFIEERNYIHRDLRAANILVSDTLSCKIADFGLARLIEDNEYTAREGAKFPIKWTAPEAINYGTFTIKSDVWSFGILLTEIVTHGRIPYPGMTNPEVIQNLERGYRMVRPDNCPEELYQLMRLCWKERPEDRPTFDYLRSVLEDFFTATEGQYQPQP
T6 sequence (P35968 20-1356, species assumed): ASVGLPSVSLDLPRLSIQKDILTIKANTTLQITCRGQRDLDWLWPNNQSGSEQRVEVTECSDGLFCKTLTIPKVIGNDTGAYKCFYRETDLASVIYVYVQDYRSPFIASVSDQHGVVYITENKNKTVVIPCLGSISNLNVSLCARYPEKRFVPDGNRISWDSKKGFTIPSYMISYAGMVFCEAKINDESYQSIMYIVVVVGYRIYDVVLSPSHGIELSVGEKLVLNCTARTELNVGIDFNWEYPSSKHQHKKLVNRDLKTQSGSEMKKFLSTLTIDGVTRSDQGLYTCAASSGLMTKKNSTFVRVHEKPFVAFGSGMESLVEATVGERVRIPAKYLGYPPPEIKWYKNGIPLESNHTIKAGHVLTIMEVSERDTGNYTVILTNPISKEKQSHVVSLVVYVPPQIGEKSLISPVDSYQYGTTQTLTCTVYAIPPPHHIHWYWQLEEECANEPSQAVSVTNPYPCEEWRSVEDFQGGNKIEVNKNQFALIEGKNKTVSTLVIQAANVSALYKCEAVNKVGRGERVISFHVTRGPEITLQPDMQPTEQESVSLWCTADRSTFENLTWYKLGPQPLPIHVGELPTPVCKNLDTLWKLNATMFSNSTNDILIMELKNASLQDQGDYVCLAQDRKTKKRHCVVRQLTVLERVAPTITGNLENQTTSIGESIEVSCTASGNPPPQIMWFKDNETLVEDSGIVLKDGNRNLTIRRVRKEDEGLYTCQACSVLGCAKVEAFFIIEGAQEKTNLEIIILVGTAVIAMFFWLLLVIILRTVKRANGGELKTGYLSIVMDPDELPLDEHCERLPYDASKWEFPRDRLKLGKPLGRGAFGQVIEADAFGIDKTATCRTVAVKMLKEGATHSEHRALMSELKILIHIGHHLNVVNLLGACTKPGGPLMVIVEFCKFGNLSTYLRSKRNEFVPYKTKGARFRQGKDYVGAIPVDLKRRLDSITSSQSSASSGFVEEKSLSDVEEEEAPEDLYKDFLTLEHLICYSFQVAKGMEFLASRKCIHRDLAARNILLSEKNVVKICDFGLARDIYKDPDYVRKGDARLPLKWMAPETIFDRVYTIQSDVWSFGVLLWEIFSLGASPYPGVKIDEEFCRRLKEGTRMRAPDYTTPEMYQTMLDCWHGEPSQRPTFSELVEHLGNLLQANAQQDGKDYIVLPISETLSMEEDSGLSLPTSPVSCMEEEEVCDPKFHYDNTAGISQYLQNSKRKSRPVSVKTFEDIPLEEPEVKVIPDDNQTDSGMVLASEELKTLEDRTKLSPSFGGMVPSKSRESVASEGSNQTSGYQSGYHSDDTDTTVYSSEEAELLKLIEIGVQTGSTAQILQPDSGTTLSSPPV
T2 sequence (P00533 25-1210, species assumed): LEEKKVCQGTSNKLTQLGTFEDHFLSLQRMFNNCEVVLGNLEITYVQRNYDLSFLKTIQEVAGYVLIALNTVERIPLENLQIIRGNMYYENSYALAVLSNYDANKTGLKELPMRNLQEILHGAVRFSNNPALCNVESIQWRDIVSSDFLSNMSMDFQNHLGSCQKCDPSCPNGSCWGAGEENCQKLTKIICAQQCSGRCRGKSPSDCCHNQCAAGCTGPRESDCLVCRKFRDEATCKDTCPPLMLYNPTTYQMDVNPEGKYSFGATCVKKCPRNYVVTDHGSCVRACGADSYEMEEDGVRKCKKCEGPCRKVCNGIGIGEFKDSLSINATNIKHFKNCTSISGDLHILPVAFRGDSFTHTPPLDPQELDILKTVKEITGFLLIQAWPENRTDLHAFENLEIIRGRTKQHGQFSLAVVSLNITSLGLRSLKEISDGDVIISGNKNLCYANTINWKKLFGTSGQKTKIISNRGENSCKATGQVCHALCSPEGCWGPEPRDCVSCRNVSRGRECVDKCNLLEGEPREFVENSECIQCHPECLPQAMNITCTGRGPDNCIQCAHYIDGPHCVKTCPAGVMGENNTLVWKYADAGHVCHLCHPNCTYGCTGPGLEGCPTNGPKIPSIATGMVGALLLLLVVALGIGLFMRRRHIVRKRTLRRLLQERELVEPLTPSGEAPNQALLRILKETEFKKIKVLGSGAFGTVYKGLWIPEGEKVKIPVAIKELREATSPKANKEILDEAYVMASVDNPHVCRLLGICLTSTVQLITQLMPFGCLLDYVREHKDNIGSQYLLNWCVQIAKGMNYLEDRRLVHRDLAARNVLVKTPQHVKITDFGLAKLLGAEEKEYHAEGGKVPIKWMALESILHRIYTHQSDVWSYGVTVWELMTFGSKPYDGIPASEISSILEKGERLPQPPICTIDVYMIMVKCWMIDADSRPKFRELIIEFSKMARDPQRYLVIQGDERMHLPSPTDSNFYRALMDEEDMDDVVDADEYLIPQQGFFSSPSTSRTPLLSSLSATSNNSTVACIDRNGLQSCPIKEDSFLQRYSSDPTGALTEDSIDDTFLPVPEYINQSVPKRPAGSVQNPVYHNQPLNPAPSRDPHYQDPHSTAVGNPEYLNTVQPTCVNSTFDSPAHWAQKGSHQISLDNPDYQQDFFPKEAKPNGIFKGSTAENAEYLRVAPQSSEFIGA
T3 sequence (Q9Y243 whole entry, the tested form may be a part): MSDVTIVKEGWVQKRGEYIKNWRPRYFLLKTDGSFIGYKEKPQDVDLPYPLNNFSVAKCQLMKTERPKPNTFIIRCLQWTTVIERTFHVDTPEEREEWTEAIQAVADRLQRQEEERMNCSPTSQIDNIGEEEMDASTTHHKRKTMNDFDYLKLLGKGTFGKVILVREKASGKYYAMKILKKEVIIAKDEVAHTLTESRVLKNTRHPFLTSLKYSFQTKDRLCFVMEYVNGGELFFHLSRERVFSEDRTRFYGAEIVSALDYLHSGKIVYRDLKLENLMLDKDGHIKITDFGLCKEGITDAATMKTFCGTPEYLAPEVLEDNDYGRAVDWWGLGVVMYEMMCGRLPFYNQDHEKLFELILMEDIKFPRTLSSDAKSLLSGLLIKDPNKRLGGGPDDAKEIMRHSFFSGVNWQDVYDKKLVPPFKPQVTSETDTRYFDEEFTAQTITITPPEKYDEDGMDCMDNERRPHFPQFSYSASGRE

Compound | IC50 (Itk) [µM] | IC50 (EGFR) [µM] | IC50 (AKT) [µM] | IC50 (c-Met) [µM] | IC50 (Zap-70) [µM] | IC50 (Kdr) [µM] | IC50 (Lck) [µM] | IC50 (Itk; Table 3) [µM] | IC50 (Zap-70; Table 3) [µM] | IC50 (Kdr; Table 3) [µM] | IC50 (Lck; Table 3) [µM] | Itk-1 (Itk) | EGFR-1 (EGFR) | AKT3-1 (AKT) | Met-1 (c-Met) | Zap-1 (Zap-70) | KDR-1 (Kdr) | Lck-1 (Lck)
COc1cc(Nc2ncnc(-c3ccc(NCc4ccccc4)nc3)n2)cc(OC)c1OC [Compound 471] | > 10.1 | > 10.1 | > 10.1 | > 10.1 | > 10.1 | > 10.1 | > 10.1 | – | – | – | – | – | – | – | – | – | – | –
CCN(CC)CCCNc1ccc(-c2ncnc(Nc3cc(OC)c(OC)c(OC)c3)n2)cn1 [Compound 448] | – | > 9.62 | > 9.62 | > 9.62 | – | – | – | > 9.62 | > 9.62 | 5.13 to 7.49 | 0.855 to 5.13 | – | – | – | – | – | – | –
NS(=O)(=O)c1ccc(CNc2ncnc(-n3c(=O)[nH]c4ccccc43)n2)cc1 [Compound 456] | – | > 11.3 | > 11.3 | > 11.3 | – | – | – | > 11.3 | > 11.3 | > 11.3 | > 11.3 | – | – | – | – | – | – | –
N#Cc1ccc(Nc2ncnc(-n3c(=O)[nH]c4ccccc43)n2)cc1 [Compound 485] | > 13.7 | > 13.7 | > 13.7 | > 13.7 | > 13.7 | 1.21 to 7.29 | > 13.7 | – | – | – | – | – | – | – | – | – | – | –
O=c1[nH]c2ccccc2n1-c1ncnc(Nc2ccc(F)c(Cl)c2)n1 [Compound 459] | – | > 12.6 | > 12.6 | 6.73 to 9.81 | – | – | – | > 12.6 | > 12.6 | 1.12 to 6.73 | > 12.6 | – | – | – | – | – | – | –
NC(=O)[C@H](CO)Nc1ncnc(-n2c(=O)[nH]c3ccccc32)n1 [Compound 450] | – | > 14.3 | > 14.3 | > 14.3 | – | – | – | > 14.3 | > 14.3 | > 14.3 | > 14.3 | – | – | – | – | – | – | –
COc1cc(Nc2ncnc(-c3cccnc3NCCN)n2)cc(OC)c1OC [Compound 1074] | – | – | – | – | – | – | – | – | – | – | – | E (E>4.5 ug/mL) | E (E>4.5 ug/mL) | E (E>4.5 ug/mL) | E (E>4.5 ug/mL) | E (E>4.5 ug/mL) | B (B>0.4 and <2.4 ug/mL) | C (C>2.4 and <3.5 ug/mL)
O=C(Nc1ccc(Nc2ncnc(-n3c(=O)[nH]c4ccccc43)n2)cc1)O[C@@H]1CCOC1 [Compound 454] | – | > 10.4 | > 10.4 | 5.54 to 8.08 | – | – | – | > 10.4 | > 10.4 | 0.923 to 5.54 | 0.923 to 5.54 | – | – | – | – | – | – | –

The next lines start with results.

IC50 (Itk) [µM] | IC50 (EGFR) [µM] | IC50 (AKT) [µM] | IC50 (c-Met) [µM] | IC50 (Zap-70) [µM] | IC50 (Kdr) [µM] | IC50 (Lck) [µM] | IC50 (Itk; Table 3) [µM] | IC50 (Zap-70; Table 3) [µM] | IC50 (Kdr; Table 3) [µM] | IC50 (Lck; Table 3) [µM] | Compound | Itk-1 (Itk) | EGFR-1 (EGFR) | AKT3-1 (AKT) | Met-1 (c-Met) | Zap-1 (Zap-70) | KDR-1 (Kdr) | Lck-1 (Lck)
> 14.7 | > 14.7 | > 14.7 | > 14.7 | > 14.7 | 1.31 to 7.86 | > 14.7 | – | – | – | – | O=c1[nH]c2ccccc2n1-c1ncnc(Nc2ccncc2)n1 [Compound 488] | – | – | – | – | – | – | –
> 9.67 | > 9.67 | > 9.67 | > 9.67 | > 9.67 | > 9.67 | > 9.67 | – | – | – | – | COc1cc(Nc2ncnc(-c3cccnc3NCCN3CCCCC3)n2)cc(OC)c1OC [Compound 1079] | – | – | – | – | – | – | –
9.85 to 12.7 | 9.85 to 12.7 | > 12.7 | > 12.7 | > 12.7 | 1.13 to 6.75 | 1.13 to 6.75 | – | – | – | – | O=c1[nH]c2ccccc2n1-c1ncnc(Nc2ccc3ncccc3c2)n1 [Compound 687] | – | – | – | – | – | – | –

Source: patent publication US7074789B2, “Kinase inhibitors” (Amgen Inc., priority 1999, dated 2006)
